pIC50: −log10 of the molar value.
Columns and labels:
leukemia cell panel = experiment: NCI-60 five-dose assay, leukemia cell panel mean; format: cell-based, human; settings: mean across the six leukemia cell lines
SR = experiment: NCI-60 five-dose assay; format: cell-based, human
[1] = tested on: HG-3 and PGA-1 cell lines; experiment: alamarBlue cell viability assay, mean of both CLL cell lines; format: cell-based, human; settings: mean of HG-3 and PGA-1
K-562 = experiment: NCI-60 five-dose assay; format: cell-based, human; settings: K-562
RPMI-8226 = experiment: NCI-60 five-dose assay; format: cell-based, human; settings: RPMI-8226
[2] = tested on: NCI 60 cancer cell line panel; experiment: NCI-60 five-dose assay, full-panel means; format: cell-based; settings: for Mean TGI (MID TGI, total growth inhibition) / GI50: mean over NCI 60 cell line panel; for GI50: read-out: Mean GI50 (MID GI50, full-panel mean-graph mid-point)
Protocol: A number of our most promising compounds identified through preliminary cell viability testing (23c, 23d, 23f, 23h, 23l, 23m, 23n, 23o, 24f, 24l, 25n and 26n) were selected for NCI drug screening in the 60-cell-line panel. The panel includes nine subcategories based on cancer tissue types, which include leukemia, ovarian, central nervous system, breast, lung, prostate, skin, renal and colon cancer. The compounds were initially assessed in a one-dose assay at a fixed treatment concentration of 10 µM. The compounds selected for further investigation were progressed to a five-dose assay across the concentration ranges of 0.01, 0.1, 1, 10 and 100 µM [72]. The endpoints assessed in the screening protocol were GI50, TGI and LC50 [72].

HG-3 cells [3] = experiment: alamarBlue cell viability assay; settings: read-out: HG-3 IC50; HG-3, 24 h
PGA-1 cells [4] = experiment: alamarBlue cell viability assay; settings: read-out: PGA-1 IC50; PGA-1, 24 h
PGA-1 cells [5] = settings: 10 µM
HL-60(TB) = experiment: NCI-60 five-dose assay; format: cell-based, human; settings: HL-60(TB)
MOLT-4 = experiment: NCI-60 five-dose assay; format: cell-based, human; settings: MOLT-4
CCRF-CEM = experiment: NCI-60 five-dose assay; format: cell-based, human
HG-3 cells [6] = settings: 10 µM

| SMILES | GI50 (leukemia cell panel) [µM] | GI50 (SR) [µM] | pIC50 [1] | GI50 (K-562) [µM] | GI50 (RPMI-8226) [µM] | CC50 [2] [µM] | Mean TGI (MID TGI, total growth inhibition) [2] [µM] | GI50 [2] [µM] | pIC50 (HG-3 cells [3]) | pIC50 (PGA-1 cells [4]) | cell viability (PGA-1 cells [5]) [%] | GI50 (HL-60(TB)) [µM] | GI50 (MOLT-4) [µM] | GI50 (CCRF-CEM) [µM] | cell viability (HG-3 cells [6]) [%] |
| --- | --- | --- | --- | --- | --- | --- | --- | --- | --- | --- | --- | --- | --- | --- | --- |
| CCc1ccc(C(=O)/C=C/C23c4ccccc4C(c4ccccc42)C2C(=O)NC(=O)C23)cc1 (stereo not shown) [Compound 23c, 9-((E)-3-(4-Ethylphenyl)-3-oxoprop-1-en-1-yl)-9,10-dihydro-9,10-[3,4]epipyrroloanthracene-12,14-dione] | 1.77 | 1.37 | 5.44 | 2.42 | 1.87 | 17 | 4.670 | 1.91 | 5.34 | 5.57 | 7 | 0.07 | 2.23 | 2.66 | – |
| O=C(/C=C/C12c3ccccc3C(c3ccccc31)C1C(=O)N(c3ccccc3)C(=O)C12)c1ccccc1 (stereo not shown) [Compound 24f, (E)-9-(3-Oxo-3-phenylprop-1-en-yl)-13-phenyl-9,10-dihydro-9,10-[3,4]epipyrroloanthracene-12,14-dione] | 1.45 | 2.03 | 5.14 | 1.39 | 1.55 | 72.4 | 19.95 | 2.09 | 5.13 | 5.15 | 26 | 1.02 | 1.23 | 1.45 | – |
| O=C(/C=C/C12c3ccccc3C(c3ccccc31)C1C(=O)N(c3ccccc3)C(=O)C12)c1ccc(Cl)cc1 (stereo not shown) [Compound 24l, (E)-9-(3-(4-Chlorophenyl)-3-oxoprop-1-en-1-yl)-13-phenyl-9,10-dihydro-9,10-[3,4] epipyrroloanthracene-12,14-dione] | 0.98 | 1.07 | 5.73 | 1.55 | 1.16 | 43.7 | 10.72 | 1.7 | 5.46 | 6.51 | 17 | 0.8 | 0.76 | 0.57 | 24 |

From PMC11359702, “Synthesis and Biochemical Evaluation of Ethanoanthracenes and Related Compounds: Antiproliferative and Pro-Apoptotic Effects in Chronic Lymphocytic Leukemia (CLL)” (Pharmaceuticals, 2024)
